Drawing on ChEMBL document CHEMBL1129525 (J Med Chem, 1996), this text covers IC50 for 44 compounds.

A value given as a limit tells only on which side of the number the result lay.

In general, IC50 refers to the concentration that gives 50% inhibition. Read a low IC50 as greater potency.

Test [1] addresses T1, Dihydrofolate reductase (Pneumocystis carinii, UniProt P16184).
T1 sequence (P16184 whole entry): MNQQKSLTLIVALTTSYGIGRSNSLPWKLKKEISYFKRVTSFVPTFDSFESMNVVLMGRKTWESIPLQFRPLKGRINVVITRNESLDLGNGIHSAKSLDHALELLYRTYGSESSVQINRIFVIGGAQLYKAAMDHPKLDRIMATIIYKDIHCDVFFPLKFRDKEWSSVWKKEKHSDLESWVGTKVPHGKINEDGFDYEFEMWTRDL
Description: Inhibitory activity against Pneumocystis carinii dihydrofolate reductase

In test [2] the target is T2, Dihydrofolate reductase (Rattus norvegicus, UniProt Q920D2).
T2 sequence (Q920D2 whole entry): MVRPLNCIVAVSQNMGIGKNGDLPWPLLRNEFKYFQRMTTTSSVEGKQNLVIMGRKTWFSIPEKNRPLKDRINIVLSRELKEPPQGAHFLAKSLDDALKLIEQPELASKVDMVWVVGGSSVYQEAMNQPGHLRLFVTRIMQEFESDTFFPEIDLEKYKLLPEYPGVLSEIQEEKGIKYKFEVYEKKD
Description: Inhibitory activity against rat liver dihydrofolate reductase

A further test has as its system Toxoplasma gondii. As to the kind of experiment: Inhibition of Toxoplasma gondii cell growth. The test is classed as functional, organism-based.
In test [3] the target is T3, Bifunctional dihydrofolate reductase-thymidylate synthase (Toxoplasma gondii, UniProt Q07422).
T3 sequence (Q07422 whole entry): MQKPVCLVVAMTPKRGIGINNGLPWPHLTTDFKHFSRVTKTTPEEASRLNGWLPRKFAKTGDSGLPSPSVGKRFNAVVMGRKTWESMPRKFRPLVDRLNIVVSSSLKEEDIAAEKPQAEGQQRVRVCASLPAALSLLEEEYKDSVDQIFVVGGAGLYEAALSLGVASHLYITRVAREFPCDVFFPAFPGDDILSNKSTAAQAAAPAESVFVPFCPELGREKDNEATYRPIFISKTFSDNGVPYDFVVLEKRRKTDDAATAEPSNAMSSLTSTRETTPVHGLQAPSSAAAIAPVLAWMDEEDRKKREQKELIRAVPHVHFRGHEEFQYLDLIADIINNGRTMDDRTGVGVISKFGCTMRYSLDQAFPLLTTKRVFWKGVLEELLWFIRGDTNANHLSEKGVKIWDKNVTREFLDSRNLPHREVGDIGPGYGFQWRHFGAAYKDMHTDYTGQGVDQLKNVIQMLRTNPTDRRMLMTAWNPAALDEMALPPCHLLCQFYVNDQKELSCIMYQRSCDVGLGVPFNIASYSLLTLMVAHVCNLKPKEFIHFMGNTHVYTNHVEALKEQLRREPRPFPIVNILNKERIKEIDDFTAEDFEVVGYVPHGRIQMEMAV
Description: Inhibitory activity against Toxoplasma gondii dihydrofolate reductase

`COc1ccc(OC)c(CCc2cnc3nc(N)nc(N)c3n2)c1`: the IC50 on Dihydrofolate reductase [1] is 11100 nM; on Dihydrofolate reductase [2], 23200 nM; in the test on Toxoplasma gondii it was 5000 nM; in test [3], 5400 nM.

For the compound `COc1ccc(OC)c(N(C)Cc2cnc3nc(N)nc(N)c3c2C)c1`, the 50% inhibitory concentration (IC50) on Dihydrofolate reductase [1] was found to be 700 nM; at Dihydrofolate reductase [2], 460 nM; in the test with Toxoplasma gondii, 200 nM; in test [3], 28 nM.

With `COc1ccc(N(C)Cc2cnc3nc(N)nc(N)c3c2C)cc1OC`, the IC50 at Dihydrofolate reductase [1] came to 29 nM; against Dihydrofolate reductase [2], 5.2 nM; in the test with Toxoplasma gondii it was 150 nM; in test [3], 2.9 nM.

Regarding `COc1ccc(C)cc1NCc1cnc2nc(N)nc(N)c2c1C`, the IC50 against Dihydrofolate reductase [1] was 68 nM; against Dihydrofolate reductase [2], 160 nM; in the test with Toxoplasma gondii, 50 nM; in test [3] it was 15 nM.

Regarding `COc1ccc(SCc2cnc3nc(N)nc(N)c3n2)cc1OC`, the IC50 against Dihydrofolate reductase [1] worked out at 58200 nM; against Dihydrofolate reductase [2], 36300 nM; in the test on Toxoplasma gondii, 5000 nM; in test [3], 23200 nM.

Take `Cc1c(CNc2cccc3c2CCCC3)cnc2nc(N)nc(N)c12`: the IC50 on Dihydrofolate reductase [1] was 100 nM; against Dihydrofolate reductase [2] it was 130 nM; in the test with Toxoplasma gondii, 60 nM; in test [3], 26 nM.

For `Cc1c(CNc2cccc3ccccc23)cnc2nc(N)nc(N)c12`, the half-inhibitory concentration (IC50) on Dihydrofolate reductase [1] was 220 nM; against Dihydrofolate reductase [2] it was 110 nM; with Toxoplasma gondii, 12 nM; in test [3], 240 nM.

On to `Cc1cccc(SCc2cnc3nc(N)nc(N)c3n2)c1`, for which the IC50 against Dihydrofolate reductase [1] was found to be 21200 nM; on Dihydrofolate reductase [2] it was 8480 nM; in the test on Toxoplasma gondii, 4000 nM; in test [3], 1800 nM.

On to `CCOc1ccc(OCC)c(N(C)Cc2cnc3nc(N)nc(N)c3c2C)c1`, for which the 50% inhibitory concentration (IC50) against Dihydrofolate reductase [1] amounted to 167 nM; on Dihydrofolate reductase [2], 530 nM; in the test on Toxoplasma gondii it was 60 nM; in test [3] it was 29 nM.

`CCc1nc(N)nc(N)c1-c1ccc(Cl)cc1` [PYRIMETHAMINE] came in with a concentration for half-maximal inhibition (IC50) with Toxoplasma gondii of 400 nM.

For `Cc1c(CSc2cccc(Cl)c2)cnc2nc(N)nc(N)c12`, the IC50 against Dihydrofolate reductase [1] turned out to be 68 nM; against Dihydrofolate reductase [2], 190 nM; in the test with Toxoplasma gondii it was 150 nM; in test [3], 90 nM.

With `COc1ccc(OC)c(N(C)Cc2cnc3nc(N)nc(N)c3n2)c1`, the IC50 against Dihydrofolate reductase [1] was found to be 3900 nM; at Dihydrofolate reductase [2] it was 470 nM; in the test on Toxoplasma gondii, 1600 nM; in test [3], 210 nM.

With `COc1ccc(C)c(NCc2cnc3nc(N)nc(N)c3c2C)c1`, the IC50 came out at 38 nM against Dihydrofolate reductase [1], 150 nM against Dihydrofolate reductase [2], 30 nM in the test on Toxoplasma gondii and 23 nM in test [3].

As to `Cc1ccc(C)c(NCc2cnc3nc(N)nc(N)c3c2C)c1`, the concentration for half-maximal inhibition (IC50) at Dihydrofolate reductase [1] was found to be 30 nM; against Dihydrofolate reductase [2] it was 120 nM; in the test on Toxoplasma gondii, 10 nM; in test [3] it was 16 nM.

As to `Nc1nc(N)c2cc(CNc3ccc(Cl)cc3)ccc2n1`, the IC50 on Dihydrofolate reductase [1] came to 600 nM; on Dihydrofolate reductase [2], 73 nM; with Toxoplasma gondii, 10 nM; in test [3] it was 75 nM.

With `COc1ccc(C(F)(F)F)cc1NCc1cnc2nc(N)nc(N)c2n1`, the IC50 on Dihydrofolate reductase [1] stood at 21000 nM; on Dihydrofolate reductase [2] it was 21000 nM; with Toxoplasma gondii it was 2000 nM; in test [3], 10600 nM.

Consider `COc1ccc(OC)c(NCc2ccc3nc(N)nc(N)c3c2)c1`, for which the IC50 against Dihydrofolate reductase [1] turned out to be 750 nM; at Dihydrofolate reductase [2], 460 nM; in the test with Toxoplasma gondii, 600 nM; in test [3], 140 nM.

Regarding `Nc1nc(N)c2nc(CSc3ccc(Cl)cc3)cnc2n1`, the IC50 against Dihydrofolate reductase [1] is 42100 nM; at Dihydrofolate reductase [2] it was 14300 nM; in the test with Toxoplasma gondii it was greater than 10000 nM; in test [3], 16800 nM.

Regarding `Cc1cc(Cl)ccc1NCc1ccc2nc(N)nc(N)c2c1`, the IC50 against Dihydrofolate reductase [1] turned out to be 330 nM; on Dihydrofolate reductase [2] it was 23 nM; in the test with Toxoplasma gondii, 200 nM; in test [3], 33 nM.

With `Nc1nc(N)c2nc(CNc3cccc4ccccc34)cnc2n1`, the half-maximal inhibitory concentration (IC50) came out at 1260 nM at Dihydrofolate reductase [2], 250 nM in the test on Toxoplasma gondii and 76 nM in test [3].

Turning to `Nc1nc(N)c2cc(CNc3cccc4ccccc34)cnc2n1`, the IC50 came out at 260 nM against Dihydrofolate reductase [1], 230 nM on Dihydrofolate reductase [2], 800 nM in the test with Toxoplasma gondii and 150 nM in test [3].

In the case of `Cc1ccc(SCc2cnc3nc(N)nc(N)c3c2C)cc1`, the IC50 against Dihydrofolate reductase [1] came out at 530 nM; against Dihydrofolate reductase [2], 500 nM; in the test with Toxoplasma gondii, 300 nM; in test [3], 57 nM.

As for `COc1cccc(C)c1NCc1cnc2nc(N)nc(N)c2c1C`, the IC50 against Dihydrofolate reductase [1] stood at 1000 nM; against Dihydrofolate reductase [2], 320 nM; with Toxoplasma gondii, 300 nM; in test [3] it was 100 nM.

`COc1cc(NCc2cnc3nc(N)nc(N)c3c2C)cc(OC)c1`: the IC50 is 49 nM against Dihydrofolate reductase [1], 31 nM at Dihydrofolate reductase [2], 60 nM in the test with Toxoplasma gondii and 3.5 nM in test [3].

On to `Cc1c(CN(C)c2cccc3c2CCCC3)cnc2nc(N)nc(N)c12`, for which the IC50 against Dihydrofolate reductase [1] amounted to 150 nM; against Dihydrofolate reductase [2], 140 nM; in the test with Toxoplasma gondii, 20 nM; in test [3] it was 16 nM.

Regarding `COc1cc(NCc2cnc3nc(N)nc(N)c3n2)cc(OC)c1`, the IC50 at Dihydrofolate reductase [1] amounted to 960 nM; against Dihydrofolate reductase [2], 880 nM; with Toxoplasma gondii, 1000 nM; in test [3], 110 nM.

On to `COc1ccc(SCc2cnc3nc(N)nc(N)c3n2)cc1`, for which the 50% inhibitory concentration (IC50) against Dihydrofolate reductase [1] turned out to be 17200 nM; against Dihydrofolate reductase [2], 10200 nM; in the test on Toxoplasma gondii, 3000 nM; in test [3] it was 14000 nM.

As for `Nc1nc(N)c2nc(CCc3cccc4ccccc34)cnc2n1`, the 50% inhibitory concentration (IC50) on Dihydrofolate reductase [2] is 60000 nM; in the test on Toxoplasma gondii, 1000 nM; in test [3], 820 nM.

Consider `COc1ccc(OC)c(NCc2cnc3nc(N)nc(N)c3n2)c1`, for which the IC50 against Dihydrofolate reductase [1] is 6200 nM; on Dihydrofolate reductase [2], 22900 nM; in the test with Toxoplasma gondii, 5000 nM; in test [3], 6900 nM.

Regarding `Cc1c(CNc2ccc(Cl)cc2)cnc2nc(N)nc(N)c12`, the IC50 at Dihydrofolate reductase [1] was 110 nM; against Dihydrofolate reductase [2], 72 nM; with Toxoplasma gondii, 150 nM; in test [3], 32 nM.

Consider `COc1cc(NCc2cnc3nc(N)nc(N)c3c2C)cc(C(F)(F)F)c1`, for which the IC50 against Dihydrofolate reductase [1] is 20 nM; against Dihydrofolate reductase [2] it was 17 nM; in the test with Toxoplasma gondii it was 200 nM; in test [3], 18 nM.

Regarding `COc1cc(OC)cc(N(C)Cc2cnc3nc(N)nc(N)c3c2C)c1`, the IC50 against Dihydrofolate reductase [1] turned out to be 50 nM; at Dihydrofolate reductase [2], 13 nM; with Toxoplasma gondii, 10 nM; in test [3] it was 4 nM.

Turning to `COc1ccc(NCc2cnc3nc(N)nc(N)c3c2C)cc1OC`, the 50% inhibitory concentration (IC50) was 51 nM at Dihydrofolate reductase [1], 6.5 nM on Dihydrofolate reductase [2], 600 nM in the test on Toxoplasma gondii and 2.7 nM in test [3].

Turning to `Nc1nc(N)c2cc(CNc3cccc4ccccc34)ccc2n1`, the 50% inhibitory concentration (IC50) came out at 210 nM on Dihydrofolate reductase [1], 55 nM at Dihydrofolate reductase [2], 60 nM with Toxoplasma gondii and 27 nM in test [3].

For the compound `Cc1c(CSc2ccccc2)cnc2nc(N)nc(N)c12`, the IC50 at Dihydrofolate reductase [1] was 440 nM; against Dihydrofolate reductase [2], 430 nM; with Toxoplasma gondii, 200 nM; in test [3], 34 nM.

For `Nc1nc(N)c2nc(CSc3cccc4ccccc34)cnc2n1`, the half-inhibitory concentration (IC50) came to 4200 nM against Dihydrofolate reductase [1], 8200 nM at Dihydrofolate reductase [2], 3000 nM in the test with Toxoplasma gondii and 7000 nM in test [3].

Take `COc1cc(NCc2cnc3nc(N)nc(N)c3n2)cc(OC)c1OC`: the half-inhibitory concentration (IC50) at Dihydrofolate reductase [1] was found to be 7000 nM; at Dihydrofolate reductase [2] it was 1900 nM; with Toxoplasma gondii, 11000 nM; in test [3], 1000 nM.

As for `Nc1nc(N)c2nc(CSc3cccc(Cl)c3)cnc2n1`, the IC50 at Dihydrofolate reductase [1] is 42200 nM; against Dihydrofolate reductase [2], 26600 nM; in the test with Toxoplasma gondii it was greater than 10000 nM; in test [3], 5700 nM.

Regarding `COc1ccc(OC)c(Cc2cnc3nc(N)nc(N)c3c2C)c1` [PIRITREXIM], the IC50 in the test with Toxoplasma gondii is 20 nM.

For the compound `COc1cc(NCc2cnc3nc(N)nc(N)c3c2)cc(OC)c1OC`, the half-inhibitory concentration (IC50) is 810 nM at Dihydrofolate reductase [2], 15000 nM with Toxoplasma gondii and 130 nM in test [3].

Turning to `COc1cc(NCc2cnc3nc(N)nc(N)c3c2C)cc(OC)c1OC`, the IC50 came to 5.4 nM on Dihydrofolate reductase [2] and 1000 nM in the test with Toxoplasma gondii.

On to `Cc1ccc(SCc2cnc3nc(N)nc(N)c3n2)cc1`, for which the IC50 against Dihydrofolate reductase [2] stood at 26000 nM; in the test on Toxoplasma gondii, 5000 nM; in test [3], 15000 nM.

Consider `COc1ccc(SCc2cnc3nc(N)nc(N)c3c2C)cc1`, for which the 50% inhibitory concentration (IC50) on Dihydrofolate reductase [1] is 560 nM; in the test on Toxoplasma gondii it was 300 nM.

`Nc1nc(N)c2nc(CSc3ccccc3)cnc2n1`: the IC50 is 9500 nM on Dihydrofolate reductase [1] and 10000 nM in the test on Toxoplasma gondii.
